Patent US10975080B2, “Compounds and compositions for inhibiting the activity of SHP2” (NOVARTIS AG, priority 2015, dated 2021)
pIC50: −log10 of the molar value. Where two headings read alike, the source gives them in different places.

Target: SHP2 (Homo sapiens (Human), UniProt Q06124)
Test: SHP2 Allosteric Inhibition Assay
Format: biochemical
Settings: 0.5 nM SHP2 with 0.5 μM peptide IRS1_pY1172(dPEG8)pY1222, surrogate substrate DiFMUP, 25° C.
Text: SHP2 Allosteric Inhibition Assay
SHP2 is allosterically activated through binding of bis-tyrosyl-phosphorylated peptides to its Src Homology 2 (SH2) domains. The latter activation step leads to the release of the auto-inhibitory interface of SHP2, which in turn renders the SHP2 protein tyrosine phosphatase (PTP) active and available for substrate recognition and reaction catalysis. The catalytic activity of SHP2 was monitored using the surrogate substrate DiFMUP in a prompt fluorescence assay format.
After 30-60 minutes incubation at 25° C., the surrogate substrate DiFMUP (Invitrogen, cat #D6567) was added to the reaction and incubated at 25° C. for 30 minutes. […] The inhibitor dose response curves were analyzed using normalized IC50 regression curve fitting with control based normalization.

SHP2, sequence (Q06124 whole entry): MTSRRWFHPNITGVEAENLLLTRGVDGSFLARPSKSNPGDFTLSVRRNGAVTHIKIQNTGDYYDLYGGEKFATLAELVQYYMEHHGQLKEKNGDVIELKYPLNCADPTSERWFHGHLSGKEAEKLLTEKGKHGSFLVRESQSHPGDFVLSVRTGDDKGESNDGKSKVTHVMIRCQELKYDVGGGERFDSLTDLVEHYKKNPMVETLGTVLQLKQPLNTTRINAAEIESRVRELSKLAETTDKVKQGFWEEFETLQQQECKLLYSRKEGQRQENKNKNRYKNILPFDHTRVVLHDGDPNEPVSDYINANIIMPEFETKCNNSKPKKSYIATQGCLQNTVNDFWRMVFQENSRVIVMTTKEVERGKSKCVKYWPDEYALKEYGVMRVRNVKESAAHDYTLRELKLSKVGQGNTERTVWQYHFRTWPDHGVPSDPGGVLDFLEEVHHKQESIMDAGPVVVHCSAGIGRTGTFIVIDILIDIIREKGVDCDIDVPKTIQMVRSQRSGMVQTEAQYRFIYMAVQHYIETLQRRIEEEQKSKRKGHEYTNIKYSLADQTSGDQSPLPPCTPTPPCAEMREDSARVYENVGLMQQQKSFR

| SMILES | pIC50 (read-out: IC50) | pIC50 (read-out: SHP2 IC50) |
| --- | --- | --- |
| Cn1c(N2CCC3(CCC[C@H]3N)CC2)nc2n[nH]c(-c3cccc(Cl)c3Cl)c2c1=O [Example 2, (R)-6-(1-amino-8-azaspiro[4.5]decan-8-yl)-3-(2,3-dichlorophenyl)-5-methyl-2H-pyrazolo[3,4-d]pyrimidin-4(5H)-one] | 7.59 |  |
| CC1(CN)CCN(c2nc3[nH]cc(-c4cccc(Cl)c4Cl)c3c(=O)[nH]2)CC1 [Example 3, 2-(4-(aminomethyl)-4-methylpiperidin-1-yl)-5-(2,3-dichlorophenyl)-3,7-dihydro-4H-pyrrolo[2,3-d]pyrimidin-4-one] | 7.21 |  |
| Cn1c(N2CCC(C)(CN)CC2)nc2[nH]cc(-c3cccc(Cl)c3Cl)c2c1=O [Example 5, 2-(4-(aminomethyl)-4-methylpiperidin-1-yl)-5-(2,3-dichlorophenyl)-3-methyl-3H-pyrrolo[2,3-d]pyrimidin-4(7H)-one] | 7.00 |  |
| C[C@@H]1OCC2(CCN(c3nc4[nH]nc(-c5cc(N)nc(Cl)c5Cl)c4c(=O)n3C)CC2)[C@@H]1N [Example 6, 3-(6-amino-2,3-dichloropyridin-4-yl)-6-((3S,4S)-4-amino-3-methyl-2-oxa-8-azaspiro[4.5]decan-8-yl)-5-methyl-1,5-dihydro-4H-pyrazolo[3,4-d]pyrimidin-4-one] | 6.42 |  |
| CC(C)Nc1nccc(-c2n[nH]c3nc(N4CCC5(CC4)CO[C@@H](C)[C@H]5N)n(C)c(=O)c23)c1Cl [Example 7, 6-((3S,4S)-4-amino-3-methyl-2-oxa-8-azaspiro[4.5]decan-8-yl)-3-(3-chloro-2-(isopropylamino)pyridin-4-yl)-5-methyl-1,5-dihydro-4H-pyrazolo[3,4-d]pyrimidin-4-one] | 7.47 |  |
| C[C@@H]1OCC2(CCN(c3nc4[nH]nc(-c5ccnc(N)c5Cl)c4c(=O)n3C)CC2)[C@@H]1N [Example 8, 3-(2-amino-3-chloropyridin-4-yl)-6-((3S,4S)-4-amino-3-methyl-2-oxa-8-azaspiro[4.5]decan-8-yl)-5-methyl-2,5-dihydro-4H-pyrazolo[3,4-d]pyrimidin-4-one] | 7.44 |  |
| COc1nccc(-c2c[nH]c3nc(N4CCC5(CC4)CO[C@@H](C)[C@H]5N)n(C)c(=O)c23)c1Cl [Example 9, 2-((3S,4S)-4-amino-3-methyl-2-oxa-8-azaspiro[4.5]decan-8-yl)-5-(3-chloro-2-methoxypyridin-4-yl)-3-methyl-3,7-dihydro-4H-pyrrolo[2,3-d]pyrimidin-4-one] | 7.59 |  |
| COc1nccc(-c2c[nH]c3nc(N4CCC5(CC4)CO[C@@H](C)[C@H]5N)[nH]c(=O)c23)c1Cl [Example 10, 2-((3S,4S)-4-amino-3-methyl-2-oxa-8-azaspiro[4.5]decan-8-yl)-5-(3-chloro-2-methoxypyridin-4-yl)-3H-pyrrolo[2,3-d]pyrimidin-4(7H)-one] | 7.59 |  |
| CC1(CN)CCN(c2cc3[nH]cc(-c4cccc(Cl)c4Cl)c3c(=O)[nH]2)CC1 [Example 11, 6-(4-(aminomethyl)-4-methylpiperidin-1-yl)-3-(2,3-dichlorophenyl)-1,5-dihydro-4H-pyrrolo[3,2-c]pyridin-4-one] | 7.07 |  |
| C[C@@H]1OCC2(CCN(c3cnc4c(-c5cccc(Cl)c5Cl)c[nH]c4n3)CC2)[C@@H]1N [Example 12, (3S,4S)-8-(7-(2,3-dichlorophenyl)-5H-pyrrolo[2,3-b]pyrazin-3-yl)-3-methyl-2-oxa-8-azaspiro[4.5]decan-4-amine] | 7.41 |  |
| C[C@@H]1OCC2(CCN(c3nc4[nH]nc(Sc5ccnc(N)c5Cl)c4c(=O)n3C)CC2)[C@@H]1N [Example 13, 3-((2-Amino-3-chloropyridin-4-yl)thio)-6-((3S,4S)-4-amino-3-methyl-2-oxa-8-azaspiro[4.5]decan-8-yl)-5-methyl-1,5-dihydro-4H-pyrazolo[3,4-d]pyrimidin-4-one] | 7.57 |  |
| Cn1c(N2CCC3(CCC[C@H]3N)CC2)nc2[nH]nc(-c3ccnc(N)c3Cl)c2c1=O [Example 16, (R)-3-(2-amino-3-chloropyridin-4-yl)-6-(1-amino-8-azaspiro[4.5]decan-8-yl)-5-methyl-1,5-dihydro-4H-pyrazolo[3,4-d]pyrimidin-4-one] |  | 6.44 |
| Cn1c(N2CCC3(CC[C@@H]3N)CC2)nc2[nH]nc(-c3cccc(Cl)c3Cl)c2c1=O [Example 17, (S)-6-(1-amino-7-azaspiro[3.5]nonan-7-yl)-3-(2,3-dichlorophenyl)-5-methyl-1,5-dihydro-4H-pyrazolo[3,4-d]pyrimidin-4-one] |  | 7.36 |
| COc1nccc(-c2n[nH]c3nc(N4CCC5(CC4)CO[C@@H](C)[C@H]5N)n(C)c(=O)c23)c1Cl [Example 18, 6-((3S,4S)-4-amino-3-methyl-2-oxa-8-azaspiro[4.5]decan-8-yl)-3-(3-chloro-2-methoxypyridin-4-yl)-5-methyl-1,5-dihydro-4H-pyrazolo[3,4-d]pyrimidin-4-one] |  | 7.37 |
| Cn1c(N2CCC3(CCC[C@H]3N)CC2)nc2[nH]nc(-c3ccccc3)c2c1=O [Example 19, (R)-6-(1-amino-8-azaspiro[4.5]decan-8-yl)-5-methyl-3-phenyl-1,5-dihydro-4H-pyrazolo[3,4-d]pyrimidin-4-one] |  | 7.34 |
| Cn1c(N2CCC3(CC2)COC[C@H]3N)nc2[nH]nc(-c3cccc(Cl)c3Cl)c2c1=O [Example 20, (S)-6-(4-amino-2-oxa-8-azaspiro[4.5]decan-8-yl)-3-(2,3-dichlorophenyl)-5-methyl-1,5-dihydro-4H-pyrazolo[3,4-d]pyrimidin-4-one] |  | 7.30 |
| Cn1c(N2CCC3(CC2)COC[C@H]3N)nc2[nH]nc(-c3ccnc(Cl)c3Cl)c2c1=O [Example 21, (S)-6-(4-amino-2-oxa-8-azaspiro[4.5]decan-8-yl)-3-(2,3-dichloropyridin-4-yl)-5-methyl-1,5-dihydro-4H-pyrazolo[3,4-d]pyrimidin-4-one] |  | 7.27 |
| Cn1c(N2CCC3(CCC[C@H]3N)CC2)nc2[nH]nc(-c3ccnc(Cl)c3Cl)c2c1=O [Example 22, (R)-6-(1-amino-8-azaspiro[4.5]decan-8-yl)-3-(2,3-dichloropyridin-4-yl)-5-methyl-1,5-dihydro-4H-pyrazolo[3,4-d]pyrimidin-4-one] |  | 7.24 |
| Cn1c(N2CCC3(CC2)COC[C@H]3N)nc2[nH]nc(-c3ccnc(N)c3Cl)c2c1=O [Example 23, (S)-3-(2-amino-3-chloropyridin-4-yl)-6-(4-amino-2-oxa-8-azaspiro[4.5]decan-8-yl)-5-methyl-1,5-dihydro-4H-pyrazolo[3,4-d]pyrimidin-4-one] |  | 7.19 |
| Cn1c(N2CCC3(CCCCC3N)CC2)nc2[nH]nc(-c3cccc(Cl)c3Cl)c2c1=O (stereo not shown) [Example 24, 6-(7-amino-3-azaspiro[5.5]undecan-3-yl)-3-(2,3-dichlorophenyl)-5-methyl-1,5-dihydro-4H-pyrazolo[3,4-d]pyrimidin-4-one] |  | 7.14 |
| Cn1c(N2CCC(C)(CN)CC2)nc2[nH]nc(-c3ccnc(Cl)c3Cl)c2c1=O [Example 25, 6-(4-(aminomethyl)-4-methylpiperidin-1-yl)-3-(2,3-dichloropyridin-4-yl)-5-methyl-1,5-dihydro-4H-pyrazolo[3,4-d]pyrimidin-4-one] |  | 7.00 |
| Cn1c(N2CCC(C)(CN)CC2)nc2[nH]nc(-c3cccc(C(F)(F)F)c3Cl)c2c1=O [Example 26, 6-(4-(aminomethyl)-4-methylpiperidin-1-yl)-3-(2-chloro-3-(trifluoromethyl)phenyl)-5-methyl-1,5-dihydro-4H-pyrazolo[3,4-d]pyrimidin-4-one] |  | 6.90 |
| C[C@@H]1OCC2(CCN(c3nc4[nH]nc(-c5c(F)ccc(Cl)c5Cl)c4c(=O)n3C)CC2)[C@@H]1N [Example 27, 6-((3S,4S)-4-amino-3-methyl-2-oxa-8-azaspiro[4.5]decan-8-yl)-3-(2,3-dichloro-6-fluorophenyl)-5-methyl-1,5-dihydro-4H-pyrazolo[3,4-d]pyrimidin-4-one] |  | 6.35 |
| Cn1c(N2CCC(C)(CN)CC2)nc2[nH]nc(-c3ccncc3Cl)c2c1=O [Example 28, 6-(4-(aminomethyl)-4-methylpiperidin-1-yl)-3-(3-chloropyridin-4-yl)-5-methyl-1,5-dihydro-4H-pyrazolo[3,4-d]pyrimidin-4-one] |  | 6.51 |
| C[C@@H]1OCC2(CCN(c3nc4[nH]nc(-c5ccnc(NC6CCC6)c5Cl)c4c(=O)n3C)CC2)[C@@H]1N [Example 29, 6-((3S,4S)-4-amino-3-methyl-2-oxa-8-azaspiro[4.5]decan-8-yl)-3-(3-chloro-2-(cyclobutylamino)pyridin-4-yl)-5-methyl-1,5-dihydro-4H-pyrazolo[3,4-d]pyrimidin-4-one] |  | 7.46 |
| C[C@@H]1OCC2(CCN(c3nc4[nH]nc(-c5ccnc(N6CCOCC6)c5Cl)c4c(=O)n3C)CC2)[C@@H]1N [Example 30, 6-((3S,4S)-4-amino-3-methyl-2-oxa-8-azaspiro[4.5]decan-8-yl)-3-(3-chloro-2-morpholinopyridin-4-yl)-5-methyl-1,5-dihydro-4H-pyrazolo[3,4-d]pyrimidin-4-one] |  | 6.99 |
| C[C@@H]1OCC2(CCN(c3nc4[nH]nc(-c5ccnc(N6CCCC6)c5Cl)c4c(=O)n3C)CC2)[C@@H]1N [Example 31, 6-((3S,4S)-4-amino-3-methyl-2-oxa-8-azaspiro[4.5]decan-8-yl)-3-(3-chloro-2-(pyrrolidin-1-yl)pyridin-4-yl)-5-methyl-1,5-dihydro-4H-pyrazolo[3,4-d]pyrimidin-4-one] |  | 7.92 |
| CNc1nccc(-c2n[nH]c3nc(N4CCC5(CC4)CO[C@@H](C)[C@H]5N)n(C)c(=O)c23)c1Cl [Example 32, 6-((3S,4S)-4-amino-3-methyl-2-oxa-8-azaspiro[4.5]decan-8-yl)-3-(3-chloro-2-(methylamino)pyridin-4-yl)-5-methyl-1,5-dihydro-4H-pyrazolo[3,4-d]pyrimidin-4-one] |  | 7.27 |
